Literature values as cited in US20220211661A1, “GREEN TEA CATECHINS EUTECTIC SYSTEM” (ASSISTANCE PUBLIQUE - HOPITAUX DE PARIS, priority 2019, published 2022).

Settings: after 1-h ultra violet irradiation

EGCG decomposed: 70%
Substance: (-)-epigallocatechin-3-gallate [EGCG]
